Measurements as given in paper PMC7140380, “Magnolia extract is effective for the chemoprevention of oral cancer through its ability to inhibit mitochondrial respiration at complex I” (Cell Communication and Signaling : CCS, 2020).
Read-outs that look alike come from different tables or passages of the source.

Experiments:
[1] = test system: CAL 27 cells; test: Cell proliferation assay (IncuCyte real-time cell confluence); format: cell-based; settings: Homo sapiens
Method: Cells were seeded in 96-well tissue culture plates at 1000–3000 cells per well. Twenty-four hours after seeding, cells were exposed to various concentrations of ME, whereas control cells received fresh medium with an equivalent amount of dimethyl sulfoxide (DMSO) vehicle. Plates were incubated at 37 °C under 5% CO2 and monitored using the IncuCyte Live Cell analysis system (Essen Bioscience, Ann Arbor, MI). […] All assays were performed in triplicate or quadruplicate.

[2] = test system: p70S6K; test: Western blot, p70S6K phosphorylation in CAL 27 cells; format: cell-based, human; settings: single agents at concentrations close to their IC50 (HNK 20 μM, MGN 40 μM, MHNK 20 μM)
Method: (§1) CAL 27 cells were treated with vehicle control (DMSO), HNK (20 μM), MGN (40 μM), and MHNK (20 μM) for 4 h and then lysed with a lysis buffer containing a proteinase inhibitor cocktail (Cell Signaling Technology, Danvers, MA), sheared 10 times by passage through a 28-gauge needle, and centrifuged at 16,000 g for 30 min; the protein concentration of the supernatant was determined by the Bradford method. Lysates, normalized for equal protein loading, were analyzed by the PathScan RTK Signaling Array (Cell Signaling Technology, Danvers, MA) and the LI-COR Odyssey infrared imaging system (LI-COR Biosciences-Biotechnology, Lincoln, NE).
(§2) Cells were lysed with RIPA buffer containing a proteinase inhibitor cocktail (Fisher Scientific, Pittsburg, PA), sheared 10 times by passage through a 28-gauge needle, and centrifuged at 16,000 g for 30 min; the supernatants were normalized for protein concentration as determined by the Bradford method. Lysates were boiled for 5 min and resolved on 4–12% sodium dodecyl sulfate polyacrylamide gel electrophoresis (SDS-PAGE) gels (Invitrogen, Carlsbad, CA). The blots were probed with the following primary antibodies from Cell Signaling Technology (Danvers, MA): p-STAT3-Tyr705, p-STAT3-Ser727, HKII, P70, and P70S6K. The following antibodies were from Santa Cruz Biotechnology (Dallas, TX): anti-actin, anti-Prx1 and anti-Prx3.

[3] = test system: STAT3; test: Western blot, STAT3 phosphorylation in CAL 27 cells; format: cell-based, human; settings: single agents at concentrations close to their IC50 (HNK 20 μM, MGN 40 μM, MHNK 20 μM)
Method: as §1, §2

[4] = test system: hexokinase II (HKII); test: Western blot, HKII levels in CAL 27 cells; format: cell-based, human; settings: single agents at concentrations close to their IC50 (HNK 20 μM, MGN 40 μM, MHNK 20 μM)
Method: as §1, §2

[5] = test system: 4NQO-induced oral cancer; test: 4NQO-induced oral carcinogenesis in C57BL/6 J mice; format: in vivo; settings: 20 mg/kg oral
Method: Oral tumors were induced by exposing mice to 4NQO at a dose of 50 μg/mL in drinking water for 16 consecutive weeks. One week following the first dose of 4NQO, mice were given ME or the individual active components in ME via oral administration (five days/week for the next 20 consecutive weeks). Animal body weights and 4NQO-water consumption were monitored weekly. 21 weeks after the start of 4NQO treatment, mice were imaged by MRI. Mice were euthanized and oral tissues were collected to assess total oral tumor volume (sum of V) for each mouse. A portion of normal appearing tissue and oral tumor from each mouse were flash frozen in liquid nitrogen for molecular analysis. Remaining oral tissues were embedded in paraffin for pathologic analysis as previously described and for immunohistochemistry (IHC) analysis of biomarkers. In addition, the oral cavity, esophagus, stomach/forestomach, lung, and other major organs were examined carefully for any signs of abnormality.
Mice were imaged using a 9.4 T MRI (Bruker, Billerica, MA) with a custom birdcage style Quadrature coil (Doty Scientific, Columbia, SC). Mice were anesthetized (2 min) initially in a chamber using a mixture of oxygen (3 L/min) and isofluorane (4%). Once an animal was fully anesthetized, optical lubricant was placed on each eye to prevent drying. […]

[6] = CAL-27, read-out: IC50 as single agents, cell proliferation

SMILES | IC50 [1, 6] | phosphorylation of p70S6K [2] | phosphorylation of STAT3 (p-STAT3 Ser727) [3] | IC50 ([1]; CAL 27 cells, single agents, read-out: IC50 as single agents, cell proliferation) | levels of hexokinase II (HKII) [4] | suppression of 4NQO-induced oral tumors as sole agent, compared with the other single agents [5]
C=CCc1ccc(O)c(-c2cc(CC=C)ccc2O)c1 [MGN, 5,5′-diallyl-2,2′-dihydroxybiphenyl] | 49 µM | inhibited | – | – | – | –
C=CCc1ccc(O)c(-c2ccc(O)c(CC=C)c2)c1 [HNK, 5,3′-diallyl-2,4′-dihydroxybiphenyl] | – | – | inhibited | 19 µM | – | –
C=CCc1ccc(O)c(-c2ccc(OC)c(CC=C)c2)c1 [MHNK, 3,5′-diallyl-2′-hydroxy-4-methoxybiphenyl] | 19 µM | – | – | – | decreased | greatest effect
